The values that follow come from patent US5935932A, “Bradykinin antagonists containing pentafluorophenylalanine” (University Technology Corporation, priority 1998, dated 1999).

Like-named read-outs stand apart in the source and are kept apart here. Where a SMILES comes first, the peptide text is derived from it. Where no end group is shown, it is not given here. [ ]: non-standard residue; d: D form. dPhe(F5) = N[C@H](Cc1c(F)c(F)c(F)c(F)c1F)C(=O)O; Oic = O=C(O)[C@@H]1C[C@@H]2CCCC[C@@H]2N1; Igl = N[C@H](C(=O)O)C1Cc2ccccc2C1; Hyp = O=C(O)[C@@H]1C[C@@H](O)CN1; NMeF = CN[C@@H](Cc1ccccc1)C(=O)O; 2Thi = N[C@@H](Cc1cccs1)C(=O)O

The conditions of series [1]: cited from earlier work.
Series [2] concerns the target T1, bradykinin receptors in Guinea Pig Ileum (Cavia porcellus, UniProt O70526).
T1 construct: describes the Guinea Pig Ileum assay used to analyze the present compounds; from tissue; host or cells: isolated guinea pig ileum
T1 sequence (O70526 1-372): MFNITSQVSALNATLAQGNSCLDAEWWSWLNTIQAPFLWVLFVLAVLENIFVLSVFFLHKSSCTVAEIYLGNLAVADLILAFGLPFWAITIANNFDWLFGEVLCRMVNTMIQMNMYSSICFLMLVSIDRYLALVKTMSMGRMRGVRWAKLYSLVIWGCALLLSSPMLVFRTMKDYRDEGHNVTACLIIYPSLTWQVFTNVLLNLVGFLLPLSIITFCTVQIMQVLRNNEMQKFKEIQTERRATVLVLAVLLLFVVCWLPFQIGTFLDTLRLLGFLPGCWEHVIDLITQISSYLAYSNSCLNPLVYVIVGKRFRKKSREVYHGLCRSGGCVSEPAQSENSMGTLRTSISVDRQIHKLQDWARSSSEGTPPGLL
The experiment in a line: Guinea Pig Ileum functional assay. The format is cell-based. The source says:
5. Guinea Pig Ileum functional assay
Trautshold, Handbook of Expt. Pharmacol. Vol 25, Springer Verlag pp 53-55 (1970) describes the Guinea Pig Ileum assay used to analyze the present compounds. The Trautshold method was used without changes to the parameters. U.S. Pat. No. 4,693,993, at Column 14, line 10 gives a general description of data analysis for this assay.
In this table, I=inhibitor, and numbers in parenthesis are pA2. Agonist activity are given as percent BK activity.

Series [3] deals with T2, bradykinin receptors in Rat Uterus (Rattus norvegicus, UniProt P25023).
T2 construct: describes the Rat Uterus assay used to analyze the present compounds; from tissue; host or cells: isolated rat uterus
T2 sequence (P25023 1-396): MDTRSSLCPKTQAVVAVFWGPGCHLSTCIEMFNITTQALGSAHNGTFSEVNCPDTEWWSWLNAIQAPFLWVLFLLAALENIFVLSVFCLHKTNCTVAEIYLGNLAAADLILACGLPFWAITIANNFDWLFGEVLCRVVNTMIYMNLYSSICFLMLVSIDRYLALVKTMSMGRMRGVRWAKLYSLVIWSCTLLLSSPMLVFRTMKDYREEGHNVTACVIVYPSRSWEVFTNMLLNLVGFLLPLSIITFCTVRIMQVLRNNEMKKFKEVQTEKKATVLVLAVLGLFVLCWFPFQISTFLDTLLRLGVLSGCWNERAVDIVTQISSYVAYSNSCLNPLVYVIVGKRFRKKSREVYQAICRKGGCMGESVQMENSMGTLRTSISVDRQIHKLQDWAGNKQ
The experiment in a line: Rat Uterus functional assay. The format is cell-based. From the text:
4. Rat Uterus functional assay Trautshold, Handbook of Expt. Pharmacol. […] The Trautshold method was used without changes to the parameters. U.S. Pat. No. 4,693,993, at Column 14, line 10 gives a general description of data analysis for this assay. In this table, I=inhibitor, and numbers in parenthesis are pA2. Agonist activity are given as percent BK activity.

Setting [4] is: number in parenthesis is pA2, read-out: Ileum, pA2 (I=inhibitor) (converted).

Regarding RPPGFSPFR [BK], in series [1] (caused by CPN), the plasma half-life was not above 15 s. Further, the “cleavage by ACE on a single passage through the pulmonary circulation” value in series [1] (single passage, pulmonary circulation) is given as “more than 99%”.
As for `N=C(N)NCCC[C@H](NC(=O)[C@H](CCCCN)NC(=O)[C@@H](N)CCCCN)C(=O)N1CCC[C@H]1C(=O)N1C[C@H](O)C[C@H]1C(=O)NCC(=O)N[C@H](C(=O)N[C@@H](CO)C(=O)N[C@H](Cc1c(F)c(F)c(F)c(F)c1F)C(=O)N1[C@H](C(=O)O)C[C@@H]2CCCC[C@@H]21)C1Cc2ccccc2C1` [Compound B10148, Lys-Lys-Arg-Pro-Hyp-Gly-Igl-Ser-Df5f-Oic], the Kb in series [2] (setting [4]) is 1000 nM; in series [3], 63.1 nM.
Consider `N=C(N)NCCC[C@@H](N)C(=O)N[C@@H](CCCNC(=N)N)C(=O)N1CCC[C@H]1C(=O)N1C[C@H](O)C[C@H]1C(=O)NCC(=O)N[C@H](C(=O)N[C@@H](CO)C(=O)N[C@H](Cc1c(F)c(F)c(F)c(F)c1F)C(=O)N[C@H](C(=O)N[C@@H](CCCNC(=N)N)C(=O)O)C1Cc2ccccc2C1)C1Cc2ccccc2C1` [Compound B10056, DArg-Arg-Pro-Hyp-Gly-Igl-Ser-Df5f-Igl-Arg], for which, in series [2] (Ileum, pA2 (I=inhibitor), number in parenthesis is pA2), the Kb is 10 nM. Also, in series [3] (rat uterus, agonist activity), the “Uterus, agonist activity as percent BK activity” value was found to be 9.5%.
As to `N=C(N)NCCC[C@@H](N)C(=O)N[C@@H](CCCNC(=N)N)C(=O)N1CCC[C@H]1C(=O)N1C[C@H](O)C[C@H]1C(=O)NCC(=O)N[C@@H](Cc1c(F)c(F)c(F)c(F)c1F)C(=O)N[C@@H](CO)C(=O)N[C@@H](C(=O)N1[C@H](C(=O)N[C@@H](CCCNC(=N)N)C(=O)O)C[C@@H]2CCCC[C@@H]21)C1Cc2ccccc2C1` [Compound B10164, DArg-Arg-Pro-Hyp-Gly-f5f-Ser-DIgl-Oic-Arg], the Kb in series [2] (setting [4]) was 63.1 nM; in series [3], 10 nM.
Taken in the same sequence, the figures for `N=C(N)NCCC[C@@H](N)C(=O)N[C@@H](CCCNC(=N)N)C(=O)N1CCC[C@H]1C(=O)N1C[C@H](O)C[C@H]1C(=O)NCC(=O)N[C@H](C(=O)N[C@@H](CO)C(=O)N[C@H](Cc1c(F)c(F)c(F)c(F)c1F)C(=O)N[C@H](C(=O)N[C@@H](CCCNC(=N)N)C(=O)O)C1CCCCC1)C1Cc2ccccc2C1` [Compound B10180, DArg-Arg-Pro-Hyp-Gly-Igl-Ser-Df5f-Chg-Arg] were 7.94 nM and 6.31 nM.
Regarding `N=C(N)NCCC[C@H](NC(=O)[C@H](Cc1c(F)c(F)c(F)c(F)c1F)NC(=O)[C@@H](Cc1c(F)c(F)c(F)c(F)c1F)NC(=O)[C@H](CO)NC(=O)[C@@H](NC(=O)CNC(=O)[C@@H]1C[C@@H](O)CN1C(=O)[C@@H]1CCCN1C(=O)[C@H](CCCNC(=N)N)NC(=O)[C@H](CCCNC(=N)N)NC(=O)CCC(=O)OCCOC(=O)CCC(=O)N[C@@H](CCCNC(=N)N)C(=O)N[C@@H](CCCNC(=N)N)C(=O)N1CCC[C@H]1C(=O)N1C[C@H](O)C[C@H]1C(=O)NCC(=O)N[C@H](C(=O)N[C@@H](CO)C(=O)N[C@H](Cc1c(F)c(F)c(F)c(F)c1F)C(=O)N[C@@H](Cc1c(F)c(F)c(F)c(F)c1F)C(=O)N[C@@H](CCCNC(=N)N)C(=O)O)C1Cc2ccccc2C1)C1Cc2ccccc2C1)C(=O)O` [Compound B10236, EGS-(Arg-Arg-Pro-Hyp-Gly-Igl-Ser-Df5f-f5f-Arg)2], the Kb was 39.8 nM in series [2] (setting [4]) and 20 nM in series [3] (rat uterus, number in parenthesis is pA2, read-out: Uterus, pA2 (I=inhibitor) (converted)).
For `CC(C)C[C@H](NC(=O)[C@@H](Cc1c(F)c(F)c(F)c(F)c1F)NC(=O)[C@H](CO)NC(=O)[C@@H](NC(=O)CNC(=O)[C@@H]1C[C@@H](O)CN1C(=O)[C@@H]1CCCN1C(=O)[C@H](CCCNC(=N)N)NC(=O)[C@H](N)CCCNC(=N)N)C1Cc2ccccc2C1)C(=O)N[C@@H](CCCNC(=N)N)C(=O)O` [Compound B10174, DArg-Arg-Pro-Hyp-Gly-Igl-Ser-Df5f-Leu-Arg] (H-[dR]RP[Hyp]G[Igl]S[dPhe(F5)]LR-OH; N-terminus and C-terminus assumed), the values for the Kb in series [2] (setting [4]) and in series [3] were 6.31 nM and 7.94 nM, respectively.
The matching figures for `CC(C)C[C@H](NC(=O)[C@@H](Cc1c(F)c(F)c(F)c(F)c1F)NC(=O)[C@H](CO)NC(=O)[C@H](Cc1cccs1)NC(=O)CNC(=O)[C@@H]1C[C@@H](O)CN1C(=O)[C@@H]1CCCN1C(=O)[C@H](CCCNC(=N)N)NC(=O)[C@H](N)CCCNC(=N)N)C(=O)N[C@@H](CCCNC(=N)N)C(=O)O` [Compound B10172, DArg-Arg-Pro-Hyp-Gly-Thi-Ser-Df5f-Leu-Arg] (H-[dR]RP[Hyp]G[2Thi]S[dPhe(F5)]LR-OH; N-terminus and C-terminus assumed): 50.1 nM and 5.01 nM.
On to `N=C(N)NCCC[C@H](NC(=O)[C@H](Cc1c(F)c(F)c(F)c(F)c1F)NC(=O)[C@@H](Cc1c(F)c(F)c(F)c(F)c1F)NC(=O)[C@H](CO)NC(=O)[C@@H](NC(=O)CNC(=O)[C@@H]1C[C@@H](O)CN1C(=O)[C@@H]1CCCN1C(=O)[C@H](CCCNC(=N)N)NC(=O)[C@@H](N)CCCNC(=N)N)C1Cc2ccccc2C1)C(=O)O` [Compound B10230, Arg-Arg-Pro-Hyp-Gly-Igl-Ser-Df5f-f5f-Arg], for which the Kb in series [2] (setting [4]) is 20 nM; in series [3] it was 1580 nM.
Turning to `CN(C(=O)[C@H](CCCNC(=N)N)NC(=O)[C@H](N)CCCNC(=N)N)[C@@H](Cc1ccccc1)C(=O)N1C[C@H](O)C[C@H]1C(=O)NCC(=O)N[C@H](C(=O)N[C@@H](CO)C(=O)N[C@H](Cc1c(F)c(F)c(F)c(F)c1F)C(=O)N1[C@H](C(=O)N[C@@H](CCCNC(=N)N)C(=O)O)C[C@@H]2CCCC[C@@H]21)C1Cc2ccccc2C1` [Compound B10150, DArg-Arg-NMF-Hyp-Gly-Igl-Ser-Df5f-Oic-Arg] (H-[dR]R[NMeF][Hyp]G[Igl]S[dPhe(F5)][Oic]R-OH; N-terminus and C-terminus assumed), the Kb in series [2] (setting [4]) is 12.6 nM; in series [3], 7.94 nM.
Regarding `N=C(N)NCCC[C@H](NC(=O)[C@@H]1C[C@@H]2CCCC[C@@H]2N1C(=O)[C@@H](Cc1c(F)c(F)c(F)c(F)c1F)NC(=O)[C@H](CO)NC(=O)[C@@H](NC(=O)CNC(=O)[C@@H]1C[C@@H](O)CN1C(=O)[C@@H]1CCCN1C(=O)[C@H](CCCNC(=N)N)NC(=O)[C@@H](CCCNC(=N)N)NC(=O)C12CC3CC(CC(C3)C1)C2)C1Cc2ccccc2C1)C(=O)O` [Compound B10154, Aca-DArg-Arg-Pro-Hyp-Gly-Igl-Ser-Df5f-Oic-Arg], the Kb was 12.6 nM in series [2] (setting [4]) and 6.31 nM in series [3].
The matching figures for `N=C(N)NCCC[C@@H](N)C(=O)N[C@@H](CCCNC(=N)N)C(=O)N1CCC[C@H]1C(=O)N1C[C@H](O)C[C@H]1C(=O)NCC(=O)N[C@@H](Cc1cccs1)C(=O)N[C@@H](CO)C(=O)N[C@H](Cc1c(F)c(F)c(F)c(F)c1F)C(=O)N(CC(=O)N[C@@H](CCCNC(=N)N)C(=O)O)C1CCCCCC1` [Compound B10204, DArg-Arg-Pro-Hyp-Gly-Thi-Ser-Df5f-Nc7G-Arg]: 12.6 nM and 631 nM.
Taken in the same sequence, the figures for `N=C(N)NCCC[C@@H](N)C(=O)N[C@@H](CCCNC(=N)N)C(=O)N1CCC[C@H]1C(=O)N1C[C@H](O)C[C@H]1C(=O)NCC(=O)N[C@H](C(=O)N[C@@H](CO)C(=O)N[C@@H](C(=O)N[C@@H](Cc1c(F)c(F)c(F)c(F)c1F)C(=O)N[C@@H](CCCNC(=N)N)C(=O)O)C1Cc2ccccc2C1)C1Cc2ccccc2C1` [Compound B10178, DArg-Arg-Pro-Hyp-Gly-Igl-Ser-DIgl-f5f-Arg] were 398 nM and 31600 nM.
Taken in the same sequence, the figures for `N=C(N)NCCC[C@@H](N)C(=O)N[C@@H](CCCNC(=N)N)C(=O)N1CCC[C@H]1C(=O)N1C[C@H](O)C[C@H]1C(=O)NCC(=O)N[C@H](C(=O)N[C@@H](CO)C(=O)N[C@H](Cc1c(F)c(F)c(F)c(F)c1F)C(=O)N[C@@H](Cc1cccs1)C(=O)N[C@@H](CCCNC(=N)N)C(=O)O)C1Cc2ccccc2C1` [Compound B10058, DArg-Arg-Pro-Hyp-Gly-Igl-Ser-Df5f-Thi-Arg] were 12.6 nM and 6.31 nM.
